Measurements from US9790180B2, “Piperidine derivatives as HDAC1/2 inhibitors” (Acetylon Pharmaceuticals, Inc., priority 2014, dated 2017).

Columns and labels:
HDAC2 = HDAC2 (Homo sapiens (Human), UniProt Q92769); assay: HDAC enzyme assay, HDAC2; type: biochemical; conditions: 24 hours pre-incubation with enzyme; read-out: IC50 (nM) HDAC2
Method: (§1) Compounds for testing were diluted in DMSO to 50 fold the final concentration and a ten point three fold dilution series was made. The compounds were diluted in assay buffer (50 mM HEPES, pH 7.4, 100 mM KCl, 0.001% Tween-20, 0.05% BSA, 20 μM tris(2-carboxyethyl)phosphine) to 6 fold their final concentration. The HDAC enzymes (purchased from BPS Biosciences) were diluted to 1.5 fold their final concentration in assay buffer and pre-incubated with the compounds for 24 hours prior to addition of the substrate.
(§2) The substrate tripeptide substrate 3 (synthesized in house) for each enzyme was equal to the Km as determined by a substrate titration curve. The substrates were diluted in assay buffer at 6× their final concentration with 0.3 μM sequencing grade trypsin (Sigma). The substrate/trypsin mix was added to the enzyme/compound mix, the plate was shaken for 60 seconds and placed into a Spectramax M5 microtiter plate reader. The development of fluorescence was monitored for 30 min and the linear rate of the reaction was calculated. The IC50 was determined using Graph Pad Prism by a four parameter curve fit. The IC50 values obtained for the compounds of this invention are found in Table 1. Examples of the curves are found in FIGS. 1 and 4.

[1] = Rat cassette pharmacokinetics; type: in vivo; conditions: male, SD, plasma
Method: Male SD rats were fasted overnight. Compounds of the invention were dissolved in dimethyl acetamide at 10 times the final concentration, then Solutol HS 15 (BASF) was added to a final concentration of 10%. Finally 80% saline was added and vortexed to achieve a clear solution. For the IV dosing three animals were injected via the foot dorsal vein with 1 mg/kg compound. For the PO dosing 5 mg/kg of compound was delivered by oral gavage. Blood was collected via the tail vein into K2EDTA tubes at 5 minutes, 15 minutes, 30 minutes, 1 hour, 2 hours, 4 hours, 8 hours and 24 hours after dosing. The blood was centrifuged at 2000 g for 5 minutes at 4° C. to obtain plasma. The plasma was extracted with acetonitrile and the level of compound was analyzed by LC/MS/MS. The level of compound in plasma was calculated from a standard curve in rat plasma. The IV clearance and area under the curve were calculated using WinNonLin software. The dose adjusted area under the curve for the IV and oral dosing were used to calculate the oral bioavailability.

[2] = system: CYP1A2, CYP2C9, CYP2C19, CYP3A4, CYP2D6; assay: Cyp inhibition in human liver microsomes; type: in vitro ADME; conditions: In vitro tox; human liver microsomes
Method: For Cyp inhibition, human live microsomes from BD Gentest were incubated with Compound 003 (10, 3.33, 1.11, 0.37, 0.12, 0.04, 0.01 μM) and substrate (CYP1A2: Phenacetin at 30 μM; CYP2C9: Diclofenac at 10 μM; CYP2C19: S-Mephenytoin at 35 μM; CYP3A4: Midazolam at 5 μM and Testosterone at 80 μM; CYP2D6: Bufuralol at 10 μM) for the following incubation times: CYP1A2, 2C9, 2D6: 10 minutes, 37° C.; CYP2C19: 45 minutes, 37° C.; CYP3A4: 5 minutes, 37° C. Substrate conversion was measured by liquid chromatography/mass spectrometry/mass spectrometry (LC/MS/MS). Inhibition was calculated by curve fitting in Graph Pad Prism.

hERG channel = hERG channel (Homo sapiens (Human), UniProt Q12809); assay: hERG assay (QPatch, CHO cell line expressing hERG channels); type: cell-based; conditions: In vitro tox
Method: For hERG assays, a CHO cell line stably transfected with hERG cDNA and expressing hERG channels were seeded into a QPatch plate (Sophion) at a density of 3-8×10^6 cells/ml. The cells were voltage clamped at a holding potential of −80 mV. The hERG current was activated by depolarizing at +20 mV for 5 sec, after which the current was taken back to −50 mV for 5 sec to remove the inactivation and observe the deactivating tail current. The maximum amount of tail current size was used to determine hERG current amplitude. Six doses (30, 10, 3, 1, 0.3 and 0.1 μM) of Compound 003 were chosen to obtain fitting curves and IC50. Data were analyzed using Assay Software provided by Sophion and Graphpad Prism.

HDAC1 = HDAC1 (Homo sapiens (Human), UniProt Q13547); assay: HDAC enzyme assay, HDAC1; type: biochemical; conditions: 24 hours pre-incubation with enzyme; read-out: IC50 (nM) HDAC1
Method: as §1, §2

HDAC3 = HDAC3 (Homo sapiens (Human), UniProt O15379); assay: HDAC enzyme assay, HDAC3; type: biochemical; conditions: 24 hours pre-incubation with enzyme; read-out: IC50 (nM) HDAC3
Method: as §1, §2

[3] = rat cassette dosing, 5 mg/kg PO

HDAC1, sequence (Q13547 whole entry): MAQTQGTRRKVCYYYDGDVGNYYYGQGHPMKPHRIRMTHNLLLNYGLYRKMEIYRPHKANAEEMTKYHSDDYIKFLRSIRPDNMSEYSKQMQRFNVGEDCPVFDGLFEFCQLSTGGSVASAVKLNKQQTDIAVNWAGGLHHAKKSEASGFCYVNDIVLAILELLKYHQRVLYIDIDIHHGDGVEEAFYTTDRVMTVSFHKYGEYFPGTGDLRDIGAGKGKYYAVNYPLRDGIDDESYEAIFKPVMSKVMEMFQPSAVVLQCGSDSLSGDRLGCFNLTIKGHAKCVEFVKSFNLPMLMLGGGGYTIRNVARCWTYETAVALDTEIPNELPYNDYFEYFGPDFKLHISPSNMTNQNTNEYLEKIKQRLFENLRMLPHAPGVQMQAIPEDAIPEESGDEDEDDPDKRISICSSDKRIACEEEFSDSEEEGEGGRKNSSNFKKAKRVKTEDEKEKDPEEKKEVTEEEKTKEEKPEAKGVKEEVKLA
HDAC2, sequence (Q92769 whole entry): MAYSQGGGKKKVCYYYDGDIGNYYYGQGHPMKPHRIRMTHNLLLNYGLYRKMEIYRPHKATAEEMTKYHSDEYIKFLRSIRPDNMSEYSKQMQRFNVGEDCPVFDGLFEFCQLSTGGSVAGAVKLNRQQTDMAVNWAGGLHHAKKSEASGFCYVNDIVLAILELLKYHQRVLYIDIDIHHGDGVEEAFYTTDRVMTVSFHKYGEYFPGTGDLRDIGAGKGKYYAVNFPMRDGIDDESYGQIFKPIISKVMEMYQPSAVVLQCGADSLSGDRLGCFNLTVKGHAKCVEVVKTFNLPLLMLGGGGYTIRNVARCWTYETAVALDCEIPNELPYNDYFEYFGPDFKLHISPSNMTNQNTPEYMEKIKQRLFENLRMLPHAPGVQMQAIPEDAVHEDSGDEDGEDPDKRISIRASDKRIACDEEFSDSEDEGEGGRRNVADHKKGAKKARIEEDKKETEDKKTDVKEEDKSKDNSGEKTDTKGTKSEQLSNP
HDAC3, sequence (O15379 whole entry): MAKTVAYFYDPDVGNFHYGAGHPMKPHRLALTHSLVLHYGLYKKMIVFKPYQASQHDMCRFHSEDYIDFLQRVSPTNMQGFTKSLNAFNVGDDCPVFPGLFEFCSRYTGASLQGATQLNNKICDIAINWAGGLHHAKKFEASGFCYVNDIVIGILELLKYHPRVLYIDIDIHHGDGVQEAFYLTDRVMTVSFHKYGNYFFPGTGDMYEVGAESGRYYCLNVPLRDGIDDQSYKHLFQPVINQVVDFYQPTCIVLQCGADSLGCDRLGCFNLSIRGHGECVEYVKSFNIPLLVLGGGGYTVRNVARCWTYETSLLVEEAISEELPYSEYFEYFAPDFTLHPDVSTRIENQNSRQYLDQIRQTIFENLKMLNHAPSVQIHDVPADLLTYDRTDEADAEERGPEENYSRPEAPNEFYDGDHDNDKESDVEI
HDAC3, sequence (Q9Y618 395-489 partner): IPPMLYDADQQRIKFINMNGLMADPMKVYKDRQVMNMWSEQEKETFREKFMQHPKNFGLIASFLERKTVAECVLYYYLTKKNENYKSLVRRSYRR
hERG channel, sequence (Q12809 whole entry): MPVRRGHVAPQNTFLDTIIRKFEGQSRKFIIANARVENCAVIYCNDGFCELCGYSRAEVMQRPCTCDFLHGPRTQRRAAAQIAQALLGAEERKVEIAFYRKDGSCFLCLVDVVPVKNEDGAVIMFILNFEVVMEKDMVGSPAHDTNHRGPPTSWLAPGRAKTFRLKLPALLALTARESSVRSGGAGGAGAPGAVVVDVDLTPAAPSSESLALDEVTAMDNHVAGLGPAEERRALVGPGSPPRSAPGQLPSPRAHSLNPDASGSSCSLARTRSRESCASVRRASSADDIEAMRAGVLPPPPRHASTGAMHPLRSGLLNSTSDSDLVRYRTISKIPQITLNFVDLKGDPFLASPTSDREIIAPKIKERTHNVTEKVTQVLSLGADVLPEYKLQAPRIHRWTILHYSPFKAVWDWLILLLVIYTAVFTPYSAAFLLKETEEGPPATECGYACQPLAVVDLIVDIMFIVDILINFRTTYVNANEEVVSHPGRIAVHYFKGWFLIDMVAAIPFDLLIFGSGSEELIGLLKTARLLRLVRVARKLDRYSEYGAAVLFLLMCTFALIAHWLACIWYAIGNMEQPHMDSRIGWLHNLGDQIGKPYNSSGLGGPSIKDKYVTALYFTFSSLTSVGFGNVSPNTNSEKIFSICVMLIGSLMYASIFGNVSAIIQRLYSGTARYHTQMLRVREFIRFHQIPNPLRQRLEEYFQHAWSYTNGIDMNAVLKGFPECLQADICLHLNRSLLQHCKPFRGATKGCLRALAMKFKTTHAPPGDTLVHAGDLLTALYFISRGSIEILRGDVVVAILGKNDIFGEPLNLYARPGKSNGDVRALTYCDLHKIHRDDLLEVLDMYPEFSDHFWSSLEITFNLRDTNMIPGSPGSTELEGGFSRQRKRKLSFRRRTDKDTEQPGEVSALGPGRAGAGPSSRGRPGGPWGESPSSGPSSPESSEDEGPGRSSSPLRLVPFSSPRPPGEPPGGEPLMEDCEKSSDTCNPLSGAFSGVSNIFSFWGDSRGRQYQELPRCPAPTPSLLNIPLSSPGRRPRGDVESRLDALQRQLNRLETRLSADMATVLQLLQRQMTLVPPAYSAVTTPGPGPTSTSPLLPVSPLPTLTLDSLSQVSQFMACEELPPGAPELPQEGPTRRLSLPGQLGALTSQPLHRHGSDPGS

Nc1ccc(-c2cccs2)cc1NC(=O)c1ccc(NC2CCN(C(=O)N3CCCC3)CC2)cc1 [Compound 006]
IC50 (HDAC2): 22 nM
bioavailability ([1]; 5 mg/kg, rat, oral AUC to IV AUC, dose adjusted): 76%
AUC [1, 3]: 31600 ng·h/mL
Cmax [1, 3]: 1520 ng/mL
half-life ([1]; rat cassette dosing, 5 mg/kg PO, read-out: PO T½ (converted)): 14.5 h
CL renal ([1]; rat cassette dosing, IV 1 mg/kg, read-out: IV Clr. (converted)): 2.5 mL/min/kg
Cyp [2]: >10 µM
hERG (hERG channel): >30 µM
IC50 (HDAC1): 4.7 nM
IC50 (HDAC3): 274 nM

CC1(Nc2ncc(C(=O)Nc3cc(-c4cccs4)ccc3N)cn2)CCN(C(=O)Oc2ccccc2)CC1 [Compound 007]
IC50 (HDAC2): 703 nM
IC50 (HDAC1): 118 nM
IC50 (HDAC3): 929 nM

CC1(Nc2ncc(C(=O)Nc3cc(-c4cccs4)ccc3N)cn2)CCN(C(=O)N2CCOCC2)CC1 [Compound 008]
IC50 (HDAC2): 37 nM
IC50 (HDAC1): 9 nM
IC50 (HDAC3): 124 nM

Nc1ccc(-c2cccs2)cc1NC(=O)c1cnc(NC2CCN(C(=O)N3CCCCC3)CC2)nc1 [Compound 009]
IC50 (HDAC2): 145 nM
IC50 (HDAC1): 32 nM
IC50 (HDAC3): 250 nM

CC1(Nc2ncc(C(=O)Nc3cc(-c4cccs4)ccc3N)cn2)CCN(C(=O)N2CCNCC2)CC1 [Compound 010]
IC50 (HDAC2): 26 nM
IC50 (HDAC1): 7.3 nM

CN1CCN(C(=O)N2CCC(C)(Nc3ncc(C(=O)Nc4cc(-c5cccs5)ccc4N)cn3)CC2)CC1 [Compound 011]
IC50 (HDAC2): 32 nM
IC50 (HDAC1): 8.5 nM
IC50 (HDAC3): 201 nM

CC1(Nc2ncc(C(=O)Nc3cc(-c4cccs4)ccc3N)cn2)CCN(C(=O)N2CCC(F)(F)CC2)CC1 [Compound 012]
IC50 (HDAC2): 177 nM
IC50 (HDAC1): 19 nM
IC50 (HDAC3): 1270 nM

CC1(Nc2ccc(C(=O)Nc3cc(-c4cccs4)ccc3N)cc2)CCN(C(=O)N2CCCC2)CC1 [Compound 013]
IC50 (HDAC2): 14 nM
IC50 (HDAC1): 4 nM
IC50 (HDAC3): 412 nM

CC1(Nc2ncc(C(=O)Nc3cc(-c4cccs4)ccc3N)cn2)CCN(C(=O)N2CCC(O)CC2)CC1 [Compound 014]
IC50 (HDAC2): 299 nM
IC50 (HDAC1): 63 nM
IC50 (HDAC3): > 2000 nM

CC1(Nc2ccc(C(=O)Nc3cc(-c4cccs4)ccc3N)cc2)CCN(C(=O)N2CCNCC2)CC1 [Compound 015]
IC50 (HDAC2): 12 nM
IC50 (HDAC1): 3.2 nM
IC50 (HDAC3): 149 nM

CN1CCN(C(=O)N2CCC(C)(Nc3ccc(C(=O)Nc4cc(-c5cccs5)ccc4N)cc3)CC2)CC1 [Compound 016]
IC50 (HDAC2): 13 nM
IC50 (HDAC1): 3.2 nM
IC50 (HDAC3): 145 nM

CCC1(Nc2ccc(C(=O)Nc3cc(-c4cccs4)ccc3N)cc2)CCN(C(=O)N2CCOCC2)CC1 [Compound 017]
IC50 (HDAC2): 99 nM
IC50 (HDAC1): 18 nM
IC50 (HDAC3): 1740 nM

Nc1ccc(-c2cccs2)cc1NC(=O)c1cnc(N2CCCC23CCN(C(=O)N2CCCC2)CC3)nc1 [Compound 018]
IC50 (HDAC2): 78 nM
IC50 (HDAC1): 12 nM
IC50 (HDAC3): 516 nM

Nc1ccc(-c2cccs2)cc1NC(=O)c1ccc(NC2CCN(C(=O)N3CCOCC3)CC2)cc1 [Compound 020]
IC50 (HDAC2): 17 nM
IC50 (HDAC1): 3.7 nM
IC50 (HDAC3): 304 nM

Nc1ccc(-c2cccs2)cc1NC(=O)c1ccc(NC2CCN(C(=O)C3CCCCC3)CC2)cc1 [Compound 021]
IC50 (HDAC2): 72 nM
IC50 (HDAC1): 15 nM
IC50 (HDAC3): 555 nM

Nc1ccc(-c2cccs2)cc1NC(=O)c1ccc(NC2CCN(C(=O)C3CCOCC3)CC2)cc1 [Compound 022]
IC50 (HDAC2): 18 nM
IC50 (HDAC1): 5 nM
IC50 (HDAC3): 203 nM

CCC1(Nc2ccc(C(=O)Nc3cc(-c4cccs4)ccc3N)cc2)CCN(C(=O)N2CCNCC2)CC1 [Compound 023]
IC50 (HDAC2): 20 nM
IC50 (HDAC1): 3.9 nM
IC50 (HDAC3): 267 nM

Nc1ccc(-c2cccs2)cc1NC(=O)c1ccc(NC2CCN(C(=O)C3(O)CCCCC3)CC2)cc1 [Compound 024]
IC50 (HDAC2): 26 nM
IC50 (HDAC1): 6 nM
IC50 (HDAC3): 287 nM

Nc1ccc(-c2cccs2)cc1NC(=O)c1ccc(NC2CCN(C(=O)C3(O)CCCC3)CC2)cc1 [Compound 025]
IC50 (HDAC2): 26 nM
IC50 (HDAC1): 7 nM
IC50 (HDAC3): 355 nM

CN1CCC(Nc2ncc(C(=O)Nc3cc(-c4cccs4)ccc3N)cn2)(c2ccccc2)CC1 [Compound 026]
IC50 (HDAC2): 72 nM
IC50 (HDAC1): 10 nM
IC50 (HDAC3): 315 nM

Nc1ccc(-c2cccs2)cc1NC(=O)c1cnc(NC2CCN(c3ccccc3)CC2)nc1 [Compound 027]
IC50 (HDAC2): 690 nM
IC50 (HDAC1): 121 nM
IC50 (HDAC3): > 2000 nM

Nc1ccc(-c2cccs2)cc1NC(=O)c1ccc(NC2CCN(c3ccccc3)CC2)cc1 [Compound 028]
IC50 (HDAC2): 443 nM
IC50 (HDAC1): 74 nM
IC50 (HDAC3): > 2000 nM

CC1(Nc2ccc(C(=O)Nc3cc(-c4ccncc4)ccc3N)cc2)CCN(C(=O)N2CCOCC2)CC1 [Compound 029]
IC50 (HDAC2): 17 nM
IC50 (HDAC3): 541 nM

CC1(Nc2ccc(C(=O)Nc3cc(-c4ccncc4)ccc3N)cc2)CCN(C(=O)N2CCCC2)CC1 [Compound 030]
IC50 (HDAC2): 9.4 nM
IC50 (HDAC1): 7.1 nM
IC50 (HDAC3): 466 nM

CC1(Nc2ccc(C(=O)Nc3cc(-c4cccnc4)ccc3N)cc2)CCN(C(=O)N2CCOCC2)CC1 [Compound 031]
IC50 (HDAC2): 71 nM
IC50 (HDAC1): 91 nM
IC50 (HDAC3): 264 nM

Nc1ccc(-c2ccncc2)cc1NC(=O)c1ccc(NC2CCN(C(=O)N3CCCC3)CC2)cc1 [Compound 032]
IC50 (HDAC2): 20 nM
IC50 (HDAC1): 17 nM
IC50 (HDAC3): 397 nM

Nc1ccc(-c2ccccc2)cc1NC(=O)c1cnc(N(c2ccccc2)C2CCN(C(=O)Cc3c[nH]c4ccccc34)CC2)nc1 [Compound 034]
IC50 (HDAC2): 346 nM
IC50 (HDAC1): 93 nM
IC50 (HDAC3): > 2000 nM

Cc1[nH]c2ccccc2c1CC(=O)N1CCC(N(c2ccccc2)c2ncc(C(=O)Nc3cc(-c4ccccc4)ccc3N)cn2)CC1 [Compound 036]
IC50 (HDAC2): 996 nM
IC50 (HDAC1): 74 nM
IC50 (HDAC3): > 2000 nM

CC1(Nc2ccc(C(=O)Nc3cc(-c4ccccc4)ccc3N)cc2C2CC2)CCN(C(=O)N2CCOCC2)CC1 [Compound 037]
IC50 (HDAC2): 377 nM
IC50 (HDAC1): 432 nM
IC50 (HDAC3): 1860 nM

Nc1ccc(-c2ccccc2)cc1NC(=O)c1cnc(NC2CCNc3ccccc32)nc1 (centres unmarked) [Compound 038]
IC50 (HDAC2): 319 nM
IC50 (HDAC1): 101 nM
IC50 (HDAC3): > 2000 nM

Nc1ccc(-c2ccccc2)cc1NC(=O)c1cnc(NC2CCNCC2)nc1 [Compound 039]
IC50 (HDAC2): 59 nM
IC50 (HDAC1): 17 nM
IC50 (HDAC3): 321 nM

CN1CCC(Nc2ncc(C(=O)Nc3cc(-c4ccccc4)ccc3N)cn2)CC1 [Compound 040]
IC50 (HDAC2): 39 nM
IC50 (HDAC1): 8 nM
IC50 (HDAC3): 277 nM

CN1CCC(Nc2ncc(C(=O)Nc3cc(-c4ccccc4)ccc3N)cn2)c2ccccc21 (centres unmarked) [Compound 042]
IC50 (HDAC2): 714 nM
IC50 (HDAC1): 210 nM
IC50 (HDAC3): > 2000 nM
